In ChEMBL document CHEMBL3988442, “University of Dundee, Small-Polar-MMV Screening Library” (2021):

Assay: In vitro enzyme assay to detect hydrolysis of chlorophenol red-beta-D-[…] directly proportional to the number of Toxoplasma stably expressing beta-galactosidase
Format: functional, organism-based, Toxoplasma gondii
Details: Toxoplasma gondii

SMILES	IC50
CC1CN(C)CCC1=O (stereo not drawn)	> 50.1 µM
Cc1ccc(F)cc1C(=O)NC1CCCNC1 (stereo not drawn)	> 50.1 µM
CCc1ccc(CN(CCO)Cc2nccn2C)nc1	> 50.1 µM
CCc1cnc(CNC)s1	> 50.1 µM
COc1ncccc1C(=O)N1CCc2ccccc2C1	> 50.1 µM
NCCc1cc(C(F)(F)F)ccn1	> 50.1 µM
CNCc1ccc(N)nc1	> 50.1 µM
N#Cc1ccccc1NC(=O)CCN1CCCC(O)C1 (stereo not drawn)	> 50.1 µM
CC(=O)NCCCS(=O)(=O)c1ncccc1Cl	> 50.1 µM
COCCN(CCOC)CC(=O)N(C)C	> 50.1 µM
NCCC(=O)Nc1ccccc1	> 50.1 µM
CN1CCC(NC(=O)c2cc3ccccc3s2)C1=O (stereo not drawn)	> 50.1 µM
NC1CN(S(=O)(=O)c2ccc3c(c2)OCCO3)C1	> 50.1 µM
COCCC1(CN2CCC(C(N)=O)C2)CCC1 (stereo not drawn)	> 50.1 µM
CC(C)CSc1nnc(CN2CCCC2=O)o1	> 50.1 µM
CC1CCN(CCNC(=O)Nc2ncnn2C)CC1	> 50.1 µM
CC(C)C(O)CCNS(=O)(=O)c1ccccc1 (stereo not drawn)	> 50.1 µM
c1cc(SCCOCC2CCCO2)ccn1 (stereo not drawn)	> 50.1 µM
CC(=O)c1ccc(OCC(O)Cn2ccnc2)cc1 (stereo not drawn)	> 50.1 µM
O=C1c2ccc(F)cc2C(=O)N1Cc1nnsc1Cl	> 50.1 µM
Cn1cc(CN)c(C(F)(F)F)n1	> 50.1 µM

SMILES	IC50
NC1CCCCNC1=O (stereo not drawn)	> 50.1 µM
N#Cc1ccnc(SCC(=O)Nc2ccncc2)c1	> 50.1 µM
OC1(Cc2ccccc2F)CCNC1 (stereo not drawn)	> 50.1 µM
CCCNC(=O)CCn1nc(C)cc1C	> 50.1 µM
CCCC(N)C(=O)N(C)Cc1cccc(N(C)C)c1 (stereo not drawn)	> 50.1 µM
COc1ccc(CC(=O)NCC2CCCNC2)cc1F (stereo not drawn)	> 50.1 µM
Cc1ocnc1CNC(=O)c1ccon1	> 50.1 µM
COCc1ccccc1C(=O)N1CCCC(O)C1 (stereo not drawn)	> 50.1 µM
CCCC(=O)N1CCN(C(=O)NCC)CC1	> 50.1 µM
Cc1nc([C@H]2CCCN2)cs1	> 50.1 µM
Cc1nnc(SCCNC(=O)CC2C=CS(=O)(=O)C2)s1 (stereo not drawn)	> 50.1 µM
NC1CCN(Cc2ccccc2)C1=O (stereo not drawn)	> 50.1 µM
COc1cccc(CNCC2CCOC2)c1 (stereo not drawn)	> 50.1 µM
CN(Cc1cccc(C#N)c1)Cc1ccnc(N)c1	> 50.1 µM
CN(C)C(=O)CNC(CO)c1ccc(Cl)c(F)c1 (stereo not drawn)	> 50.1 µM
O=C(c1cccnc1)c1ncc[nH]1	> 50.1 µM
CSCC(CCO)NC(=O)c1cc(F)ccc1O (stereo not drawn)	> 50.1 µM
Cc1cc(C(=O)Nc2cccc(C[S+](C)[O-])c2)on1 (stereo not drawn)	> 50.1 µM
O=C(CC(F)(F)F)NC1CCN(CC2CC2)C1 (stereo not drawn)	> 50.1 µM
CC(C)(C(=O)N1CCC(N)CC1)c1cccc(F)c1	> 50.1 µM
Cn1cccc1C(=O)OCCCN1CCOCC1	> 50.1 µM

SMILES	IC50
CC(C)CCC(=O)N1CCC(C)(CO)C1 (stereo not drawn)	> 50.1 µM
COC(=O)c1cnc2[nH]nc(C)c2c1	> 50.1 µM
CN(C)[C@H]1CCCCN(C(=O)Cn2cc(Cl)cn2)C1	> 50.1 µM
CC(=O)NCc1cccc(OCc2ccccn2)c1	> 50.1 µM
Cc1cc(C(=O)Nc2ccc3c(c2)CC(=O)N3)c(C)o1	> 50.1 µM
COCCNC(=O)Nc1cc(Cl)ccc1OC	> 50.1 µM
Cc1cc(-c2nc(C3CCOC3)no2)n(C)n1 (stereo not drawn)	> 50.1 µM
CCCc1ccc(C(=O)N[C@@H]2CCOC[C@H]2O)cc1	> 50.1 µM
COCc1nn(CC(=O)c2cc(F)ccc2F)c(=O)o1	> 50.1 µM
COc1ccc(-c2cncc(N)c2)cc1CO	> 50.1 µM
COc1ccc(NCC(=O)N2CCNC(=O)C2)c(C)c1	> 50.1 µM
O=C(c1cnsn1)N1CCN(C2CC2)C(=O)C1	> 50.1 µM
O=C1CN(CC(=O)Nc2c(Cl)cccc2Cl)CCN1	> 50.1 µM
CCNC(C)(C)C(=O)N(C)Cc1ccc(OC)c(F)c1	> 50.1 µM
CCN(CC(C)C#N)C(=O)c1ccc(Br)o1 (stereo not drawn)	> 50.1 µM
CC(C)COCCC(=O)Nc1nccs1	> 50.1 µM
COC(C)CCC(=O)NCc1cn2ccccc2n1 (stereo not drawn)	> 50.1 µM
CNc1cccnc1N(C)C	> 50.1 µM
CC(c1cccs1)n1nccc1N (stereo not drawn)	> 50.1 µM
Cc1ccc(C(=O)N2CCN(c3nccn3C)CC2)o1	> 50.1 µM
CC(=O)N1N=C(c2cccnc2)CC1c1ccco1 (stereo not drawn)	> 50.1 µM
